These results are taken from paper PMC10601079 (ACS Omega, 2023).

As usually defined, the Km is the concentration of substrate that gives half-maximal velocity.

Structures are written as SMILES.

The experiment deals with ACS. Description: coupled spectrophotometric assay of AMP formation. It counts as biochemical, Gordonia sp. NB4-1Y. Conditions: 2.5 mM ATP, 1.5 mM CoA, 5 mM MgCl2, 1 mM DTT, 50 mM potassium phosphate pH 7.5, 25 °C.
Turning to `O=C(O)CCCC(F)(F)F` [1:4 FTCA, 5,5,5-trifluoropentanoic acid], the Km was 12.5 ± 0.7 mM.
In the case of `CC(=O)O` [acetate] it was 78.3 ± 7.4 mM; in that of `CCCCC(=O)O` [pentanoic acid], 0.109 ± 0.011 mM.
Take `CCC(=O)O` [propionic acid]: the Km turned out to be 1.7 ± 0.2 mM.
